{"source": "ChEMBL document CHEMBL2321818", "about": "“Embellicines A and B: absolute configuration and NF-κB transcriptional inhibitory activity” (J Med Chem, 2013)", "key": {"K562 [1]": {"tested_on": "K562", "experiment": "Cytotoxicity against human K562 cells assessed as cell viability after 48 hrs by trypan blue exclusion assay", "assay_type": "functional, cell-based", "conditions": "K562, 48 h"}, "K562 [2]": {"tested_on": "K562", "experiment": "Cytotoxicity against human K562 cells assessed as cell viability after 8 hrs by trypan blue exclusion assay", "assay_type": "functional, cell-based", "conditions": "K562, 8 h"}, "K562 [3]": {"tested_on": "K562", "experiment": "Cytotoxicity against human K562 cells assessed as cell viability after 72 hrs by trypan blue exclusion assay", "assay_type": "functional, cell-based", "conditions": "K562, 72 h"}, "K562 [4]": {"tested_on": "K562", "experiment": "Cytotoxicity against human K562 cells assessed as cell viability after 24 hrs by trypan blue exclusion assay", "assay_type": "functional, cell-based", "conditions": "K562, 24 h"}, "K562 [5]": {"tested_on": "K562", "experiment": "Cytotoxicity against human K562 cells assessed as cell viability by trypan blue exclusion assay", "assay_type": "functional, cell-based", "conditions": "TDE = time-dependent effect"}, "K562 [6]": {"tested_on": "K562", "experiment": "(§1) Inhibition of TNFalpha-induced NFkappaB activation in human K562 cells incubated for 2 hrs prior to TNFalpha induction measured after 6 hrs by luciferase reporter gene assay", "assay_type": "cell-based"}, "[7]": {"experiment": "as §1", "assay_type": "cell-based"}, "K562 [8]": {"tested_on": "K562", "experiment": "Cytotoxicity against human K562 cells assessed as cell viability after 8 to 72 hrs by trypan blue exclusion assay", "assay_type": "functional, cell-based"}, "[9]": {"experiment": "Selectivity ratio of IC50 for human PBMC cells to IC50 for human K562 cells", "assay_type": "cell-based", "conditions": "PBMC cells versus K562 cells, read-out: Ratio IC50"}, "K562 [10]": {"tested_on": "K562", "experiment": "Cytotoxicity against human K562 cells assessed as concentration required to inhibit cell proliferation after 120 hrs by Incucyte phase contrast microscopic analysis", "assay_type": "functional"}, "A549": {"tested_on": "A549", "experiment": "Cytotoxicity against human A549 cells assessed as concentration required to inhibition cell proliferation after 120 hrs by Incucyte phase contrast microscopic analysis", "assay_type": "functional"}, "PBMC": {"tested_on": "PBMC", "experiment": "Cytotoxicity against human PBMC cells assessed as cell viability after 24 hrs by trypan blue exclusion assay", "assay_type": "cell-based"}}}
{"smiles": "CC1=C[C@]2(C)C(=C(C)[C@@H]3[C@@H]4C[C@H](C)C[C@H](C)[C@H]4[C@H]4Oc5ccc(cc5)C[C@@]5(O)C=C(C(=O)N5)C(=O)[C@H]2[C@@H]43)[C@@H]1C", "values": [{"measurement": "IC50", "setting": "K562 [1]", "value": 1.28, "unit": "µM"}, {"measurement": "IC50", "setting": "K562 [2]", "value": 3.47, "unit": "µM"}, {"measurement": "IC50", "setting": "K562 [3]", "value": 1.2, "unit": "µM"}, {"measurement": "IC50", "setting": "K562 [4]", "value": 2.85, "unit": "µM"}, {"measurement": "Activity", "setting": "K562 [5]", "value": "tde"}, {"measurement": "inhibition", "setting": "K562 [6]", "value": "Dose-dependent effect"}, {"measurement": "IC50", "setting": "[7]", "value": 3.04, "unit": "µM"}, {"measurement": "Activity", "setting": "K562 [8]", "value": "Dose-dependent effect"}]}
{"smiles": "CC1=C[C@]2(C)C(=C(C)[C@@H]3[C@@H]4C[C@H](C)C[C@H](C)[C@H]4[C@H]4Oc5ccc(cc5)C[C@]5(O)NC(=O)/C(=C(/O)[C@H]2[C@@H]43)[C@@H]5O)[C@@H]1C", "values": [{"measurement": "IC50", "setting": "K562 [1]", "value": 0.25, "unit": "µM"}, {"measurement": "selectivity ratio", "setting": "[9]", "value": 40}, {"measurement": "IC50", "setting": "K562 [2]", "value": 0.917, "unit": "µM"}, {"measurement": "IC50", "setting": "K562 [3]", "value": 0.21, "unit": "µM"}, {"measurement": "IC50", "setting": "K562 [4]", "value": 0.323, "unit": "µM"}, {"measurement": "INH", "setting": "K562 [10]", "value": ">=0.5 uM"}, {"measurement": "Activity", "setting": "K562 [5]", "value": "tde"}, {"measurement": "INH", "setting": "A549", "value": ">=0.5 uM"}, {"measurement": "IC50", "setting": "PBMC", "value": 12.8, "unit": "µM"}, {"measurement": "inhibition", "setting": "K562 [6]", "value": "Dose-dependent effect"}, {"measurement": "IC50", "setting": "[7]", "value": 0.352, "unit": "µM"}, {"measurement": "Activity", "setting": "K562 [8]", "value": "Dose-dependent effect"}]}
